From patent US20200037600A1, “MESOIONIC IMIDAZOPYRIDINES AS INSECTICIDES” (Bayer Aktiengesellschaft, priority 2017, published 2020)

Legend:
[1] = tested on: Ctenocephalides felis; assay: Ctenocephalides felis in vitro contact test with adult cat fleas; assay type: in vivo; conditions: application rate 5 μg/cm^2 (=500 g/ha), after 48 h
Description: Ctenocephalides felis—In Vitro Contact Tests with Adult Cat Fleas
(§1) For the coating of the test tubes, 9 mg of active compound are first dissolved in 1 ml of acetone p.a. and then diluted to the desired concentration with acetone p.a. 250 μl of the solution are distributed homogeneously on the inner walls and the base of a 25 ml glass tube by turning and rocking on an orbital shaker (rocking rotation at 30 rpm for 2 h). With 900 ppm of active compound solution and internal surface area 44.7 cm^2, given homogeneous distribution, an area-based dose of 5 μg/cm^2 is achieved.
After the solvent has evaporated off, the tubes are populated with 5-10 adult cat fleas (Ctenocephalides felis), sealed with a perforated plastic lid and incubated in a horizontal position at room temperature and ambient humidity. After 48 h, efficacy is determined. To this end, the tubes are stood upright and the fleas are knocked to the base of the tube. Fleas which remain motionless at the base or move in an uncoordinated manner are considered to be dead or moribund.
100% efficacy means that all the fleas were dead or moribund. 0% efficacy means that no fleas were harmed.

[2] = tested on: Spodoptera frugiperda; assay: Spodoptera frugiperda spray test; assay type: in vivo; conditions: application rate 500 g/ha; caterpillars on maize leaf discs; after 7 days
Description: Spodoptera frugiperda—Spray Test
(§2) Solvent: 78.0 parts by weight of acetone • • 1.5 parts by weight of dimethylformamide
(§3) Emulsifier: alkylaryl polyglycol ether
(§4) To produce a suitable active compound formulation, 1 part by weight of active compound is dissolved with the specified parts by weight of solvent and made up to the desired concentration with water containing an emulsifier concentration of 1000 ppm. To produce further test concentrations, the formulation is diluted with emulsifier-containing water.
Leaf discs of maize (Zea mays) are sprayed with an active compound formulation of the desired concentration and, after drying, populated with caterpillars of the fall armyworm (Spodoptera frugiperda).
After 7 days, the efficacy in % is determined. 100% means that all the caterpillars have been killed; 0% means that no caterpillar has been killed.

[3] = tested on: Myzus persicae; assay: Myzus persicae spray test; assay type: in vivo; conditions: application rate 500 g/ha, Chinese cabbage leaf discs, after 5 days; for pest or weed control at 500 g/ha: Myzus persicae, foliar, 120 h, read-out: efficacy
Description: Myzus persicae—Spray Test
(§5) Solvent: 78 parts by weight of acetone • • 1.5 parts by weight of dimethylformamide
as §3, §4
Discs of Chinese cabbage leaves (Brassica pekinensis) infested by all stages of the green peach aphid (Myzus persicae) are sprayed with an active compound formulation of the desired concentration.
(§6) After 5 days, the efficacy in % is determined. 100% means that all the aphids have been killed; 0% means that no aphids have been killed.

[4] = tested on: Ctenocephalides felis; assay: Ctenocephalides felis oral test; assay type: in vivo; conditions: application rate 100 ppm in citrated cattle blood; adult cat fleas; after 2 days
Description: Ctenocephalides felis—Oral Test
(§7) Solvent: dimethyl sulfoxide
To produce a suitable active compound formulation, 10 mg of active compound are mixed with 0.5 ml of dimethyl sulfoxide. Dilution with citrated cattle blood gives the desired concentration.
About 20 unfed adult cat fleas (Ctenocephalides felis) are placed into a chamber which is closed at the top and bottom with gauze. A metal cylinder whose bottom end is closed with parafilm is placed onto the chamber. The cylinder contains the blood/active compound formulation, which can be imbibed by the fleas through the parafilm membrane.
After 2 days, the kill in % is determined. 100% means that all of the fleas have been killed; 0% means that none of the fleas have been killed.

[5] = tested on: Musca domestica; assay: Musca domestica test; assay type: in vivo; conditions: application rate 100 ppm; adult houseflies; after 2 days
Description: as §7
(§8) To produce a suitable active compound formulation, 10 mg of active compound are mixed with 0.5 ml of dimethyl sulfoxide, and the concentrate is diluted with water to the desired concentration.
Vessels containing a sponge treated with sugar solution and the active compound formulation of the desired concentration are populated with 10 adult houseflies (Musca domestica).
After 2 days, the kill in % is determined. 100% means that all of the flies have been killed; 0% means that none of the flies have been killed.

[6] = tested on: Lucilia cuprina; assay: Lucilia cuprina test; assay type: in vivo; conditions: application rate 100 ppm; L1 larvae; after 2 days
Description: as §7, §8
About 20 L1 larvae of the Australian sheep blowfly (Lucilia cuprina) are transferred into a test vessel containing minced horsemeat and the active compound formulation of the desired concentration.
After 2 days, the kill in % is determined. 100% means that all the larvae have been killed; 0% means that no larvae have been killed.

[7] = tested on: Diabrotica balteata; assay: Diabrotica balteata spray test; assay type: in vivo; conditions: application rate 160 μg/well, beetle larvae on germinated wheat grains, after 7 days; for pest or weed control at 160 µg/disc, 160 µg/well: Diabrotica balteata, 168 h, read-out: efficacy
Description: Diabrotica balteata—Spray Test
as §5, §3, §4
Pre-swollen wheat grains (Triticum aestivum) are incubated in a multiwell plate filled with agar and a little water for one day (5 seed grains per well). The germinated wheat grains are sprayed with an active compound preparation of the desired concentration. Subsequently, each cavity is infected with 10-20 beetle larvae of Diabrotica balteata.
After 7 days, the efficacy in % is determined. 100% means that all maize plants have grown as in the untreated, uninfected control; 0% means that no maize plant has grown.

[8] = tested on: Myzus persicae; assay: Myzus persicae oral test; assay type: in vivo; conditions: after 5 days; for pest or weed control at 4 ppm: Myzus persicae, po, 120 h, read-out: efficacy
Description: Solvent: 100 parts by weight of acetone
To produce a suitable active compound formulation, 1 part by weight of active compound is dissolved with the stated parts by weight of solvent and made up to the desired concentration with water.
50 μl of the active compound formulation are transferred into microtitre plates and made up to a final volume of 200 μl with 150 μl of IPL41 insect medium (33%+15% sugar). Subsequently, the plates are sealed with parafilm, which a mixed population of green peach aphids (Myzus persicae) within a second microtitre plate is able to puncture and imbibe the solution.
as §6

[9] = tested on: Phaedon cochleariae; assay: Phaedon cochleariae spray test; assay type: in vivo; conditions: foliar, 168 h, application rate 500 g/ha, larvae on Chinese cabbage leaf discs, after 7 days, read-out: efficacy
Description: Phaedon cochleariae—Spray Test
as §2, §3, §4
Discs of Chinese cabbage leaves (Brassica pekinensis) are sprayed with an active compound formulation of the desired concentration and, after drying, populated with larvae of the mustard beetle (Phaedon cochleariae).
After 7 days, the efficacy in % is determined. 100% means that all the beetle larvae have been killed; 0% means that no beetle larvae have been killed.

[10] = tested on: Tetranychus urticae; assay: Tetranychus urticae spray test, OP-resistant; assay type: in vivo; conditions: application rate 500 g/ha, bean leaf discs, after 6 days
Description: Tetranychus urticae—Spray Test, OP-Resistant
as §2, §3, §4
Discs of bean leaves (Phaseolus vulgaris) infested by all stages of the red spider mite (Tetranychus urticae) are sprayed with an active compound formulation of the desired concentration.
After 6 days, the efficacy in % is determined. 100% means that all the spider mites have been killed; 0% means that no spider mites have been killed.

[11] = tested on: Rhipicephalus sanguineus; assay: Rhipicephalus sanguineus in vitro contact test with adults of the brown dog tick; assay type: in vivo; conditions: application rate 5 μg/cm^2 (=500 g/ha), adult dog ticks, after 48 h
Description: Rhipicephalus sanguineus—In Vitro Contact Tests with Adults of the Brown Dog Tick
as §1
After the solvent has evaporated off, the tubes are populated with 5-10 adult dog ticks (Rhipicephalus sanguineus), sealed with a perforated plastic lid and incubated in the dark in a horizontal position at room temperature and ambient humidity. After 48 h, efficacy is determined. To this end, the ticks are knocked to the base of the tube and, incubated on a heating plate at 45-50° C. for a maximum of 5 minutes. Ticks which remain motionless at the base or move in such an uncoordinated manner that they cannot purposely escape the heat by climbing upward are considered to be dead or moribund.
100% efficacy means that all the ticks were dead or moribund. 0% efficacy means that no ticks were harmed.

[12] = log P by HPLC (EEC directive 79/831 Annex V.A8); assay type: physicochemical
Description: The log P values reported in the tables and preparation examples above were determined in accordance with EEC directive 79/831 Annex V.A8 by HPLC (High Performance Liquid Chromatography) using a reversed-phase column (C18). Temperature 43° C. The calibration is effected with unbranched alkan-2-ones (having 3 to 16 carbon atoms), for which the log P values are known.

Compound: O=C(c1c([O-])[n+]2ccccc2n1Cc1cnc(Cl)s1)C(F)(F)Cl [Example I-019]
- efficacy [1]: 100%
- efficacy [2]: 100%
- efficacy [3]: 100%
- efficacy (kill in %) [4]: 95%
- efficacy (kill in %) [5]: 80%
- efficacy (kill in %) [6]: 95%
- efficacy [7]: 100%
- efficacy ([8]; application rate 4 ppm): 100%

Compound: Cc1ccc[n+]2c([O-])c(C(=O)C(F)F)n(Cc3cnc(Cl)s3)c12 [Example I-061]
- pest or weed control at 500 g/ha [9]: 100%
- efficacy [2]: 100%
- pest or weed control at 4 ppm ([8]; application rate 4 ppm): 100%

Compound: COCCOC(=O)C(=O)c1c([O-])[n+]2ccccc2n1Cc1cnc(Cl)s1 [Example I-050]
- efficacy [10]: 90%
- efficacy [3]: 100%
- efficacy ([8]; application rate 4 ppm): 100%

Compound: O=C(c1c([O-])[n+]2ccccc2n1Cc1cnc(Cl)s1)C(F)(F)F [Example I-007]
- efficacy [1]: 100%
- efficacy [3]: 100%
- efficacy (kill in %) [4]: 95%
- efficacy (kill in %) [5]: 90%
- efficacy (kill in %) [6]: 85%
- efficacy [7]: 100%
- efficacy ([8]; application rate 4 ppm): 100%
- efficacy ([8]; application rate 20 ppm): 100%

Compound: CC(C)OC(=O)C(=O)c1c([O-])[n+]2ccccc2n1Cc1cnc(Cl)s1 [Example I-038]
- efficacy [3]: 90%
- efficacy (kill in %) [4]: 80%
- efficacy (kill in %) [5]: 100%
- efficacy (kill in %) [6]: 90%
- efficacy [11]: 100%
- efficacy ([11]; listed as 1-038): 80%
- efficacy ([8]; application rate 4 ppm): 100%

Compound: O=C(c1c([O-])[n+]2ccccc2n1Cc1cnc(Cl)s1)C(Cl)(Cl)Cl [Example I-011, 1-[(2-Chlorothiazol-5-yl)methyl]-2-(2,2,2-trichloroacetyl)imidazo[1,2-a]pyridin-4-ium-3-olate]
- efficacy [2]: 100%
- chromatographic logP [12]: 2.44
- pest or weed control at 500 g/ha [3]: 90%
- pest or weed control at 160 µg/disc, 160 µg/well [7]: 100%
- pest or weed control at 4 ppm ([8]; application rate 4 ppm): 100%

Compound: O=C(OCC1CCC1)C(=O)c1c([O-])[n+]2ccccc2n1Cc1cnc(Cl)s1 [Example I-039]
- efficacy [10]: 90%
- efficacy [3]: 90%
- efficacy ([8]; application rate 4 ppm): 100%

Compound: Cc1ccc[n+]2c([O-])c(C(=O)C(F)(F)F)n(Cc3cnc(Cl)s3)c12 [Example I-024, 1-[(2-Chlorothiazol-5-yl)methyl]-8-methyl-2-(2,2,2-trifluoroacetyl)imidazo[1,2-a]pyridin-4-ium-3-olate]
- efficacy [1]: 100%
- pest or weed control at 500 g/ha [9]: 100%
- efficacy [2]: 83%
- chromatographic logP [12]: 2.07
- pest or weed control at 500 g/ha [3]: 90%
- efficacy (kill in %) [4]: 90%
- efficacy (kill in %) [6]: 100%
- efficacy [11]: 100%
- pest or weed control at 160 µg/disc, 160 µg/well [7]: 100%
- pest or weed control at 4 ppm ([8]; application rate 4 ppm): 100%

Compound: CCC(C)OC(=O)C(=O)c1c([O-])[n+]2ccccc2n1Cc1cnc(Cl)s1 (centres unmarked) [Example I-037]
- efficacy [10]: 90%
- efficacy [3]: 100%
- efficacy (kill in %) [5]: 100%
- efficacy (kill in %) [6]: 95%
- efficacy [7]: 100%
- efficacy ([8]; application rate 4 ppm): 100%

Compound: CCN(CC)C(=O)C(=O)c1c([O-])[n+]2ccccc2n1Cc1cnc(Cl)s1 [Example I-040]
- efficacy [10]: 100%
- efficacy [3]: 90%

Compound: Cc1ccc[n+]2c([O-])c(C(=O)C(=O)OCC3CCC3)n(Cc3cnc(Cl)s3)c12 [Example I-046]
- pest or weed control at 500 g/ha [9]: 100%
- efficacy [2]: 83%
- pest or weed control at 500 g/ha [3]: 90%
- pest or weed control at 160 µg/disc, 160 µg/well [7]: 100%
- pest or weed control at 4 ppm ([8]; application rate 4 ppm): 100%

Compound: Cc1ccc[n+]2c([O-])c(C(=O)C(F)(F)C(F)F)n(Cc3cnc(Cl)s3)c12 [Example I-063]
- pest or weed control at 500 g/ha [9]: 100%
- efficacy [2]: 100%
- pest or weed control at 4 ppm ([8]; application rate 4 ppm): 100%

Compound: O=C(c1ccccc1)c1c([O-])[n+]2ccccc2n1Cc1cnc(Cl)s1 [Example I-013]
- efficacy [1]: 100%
- efficacy [3]: 100%
- efficacy (kill in %) [5]: 90%
- efficacy [7]: 80%
- efficacy ([8]; application rate 4 ppm): 100%
- efficacy ([8]; application rate 20 ppm): 100%

Compound: O=Cc1c([O-])[n+]2ccccc2n1Cc1cnc(Cl)s1 [Example I-015, 1-[(2-Chlorothiazol-5-yl)methyl]-2-formylimidazo[1,2-a]pyridin-4-ium-3-olate]
- efficacy [1]: 100%
- chromatographic logP [12]: 1.01
- pest or weed control at 500 g/ha [3]: 90%
- pest or weed control at 160 µg/disc, 160 µg/well [7]: 100%
- pest or weed control at 4 ppm ([8]; application rate 4 ppm): 100%

Compound: CCOC(=O)C(=O)c1c([O-])[n+]2cccc(C)c2n1Cc1cnc(Cl)s1 [Example I-033]
- efficacy [1]: 100%
- pest or weed control at 500 g/ha [3]: 90%
- efficacy (kill in %) [4]: 95%
- efficacy (kill in %) [5]: 100%
- pest or weed control at 160 µg/disc, 160 µg/well [7]: 100%
- pest or weed control at 4 ppm ([8]; application rate 4 ppm): 100%

Compound: CN(C)C(=O)C(=O)c1c([O-])[n+]2ccccc2n1Cc1cnc(Cl)s1 [Example I-041]
- efficacy [10]: 90%

Compound: Cc1ccc[n+]2c([O-])c(C(=O)C(F)(F)Cl)n(Cc3cnc(Cl)s3)c12 [Example I-060]
- pest or weed control at 500 g/ha [9]: 100%
- efficacy [2]: 100%
